Reference: PubChem BioAssay (NCI)
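Step 1: Grow cells in 96-well plates. Step 2: Expose to compound for 48 hours at 5 concentrations. Step 3: Interpolate endpoints linearly; if unreached, use highest concentration. The concentration for full growth arrest is given as TGI.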

What was measured:
Test in all cases: NCI anticancer screen, dose series, 48 h
T-47D breast = tested on: T-47D breast
HOP-62 NSCLC = tested on: HOP-62 NSCLC
SR leukemia = tested on: SR leukemia
SNB-19 CNS = tested on: SNB-19 CNS
K-562 leukemia = tested on: K-562 leukemia
U251 CNS = tested on: U251 CNS
A549 NSCLC = tested on: A549 NSCLC
NCI-H23 lung = tested on: NCI-H23 lung
NCI-H522 lung = tested on: NCI-H522 lung
ACHN renal = tested on: ACHN renal
NCI/ADR-RES ovarian = tested on: NCI/ADR-RES ovarian
OVCAR-3 ovarian = tested on: OVCAR-3 ovarian
CCRF-CEM leukemia = tested on: CCRF-CEM leukemia
DU-145 prostate = tested on: DU-145 prostate
UACC-257 melanoma = tested on: UACC-257 melanoma
EKVX NSCLC = tested on: EKVX NSCLC
CAKI-1 renal = tested on: CAKI-1 renal
HCT-116 colon = tested on: HCT-116 colon
HS 578T breast = tested on: HS 578T breast
MALME-3M melanoma = tested on: MALME-3M melanoma
SF-295 CNS = tested on: SF-295 CNS
HCC-2998 colon = tested on: HCC-2998 colon
UO-31 renal = tested on: UO-31 renal
OVCAR-4 ovarian = tested on: OVCAR-4 ovarian
SK-MEL-28 melanoma = tested on: SK-MEL-28 melanoma
MCF7 breast = tested on: MCF7 breast
TK-10 renal = tested on: TK-10 renal
NCI-H226 lung = tested on: NCI-H226 lung
HL-60(TB) leukemia = tested on: HL-60(TB) leukemia
LOX IMVI melanoma = tested on: LOX IMVI melanoma
OVCAR-8 ovarian = tested on: OVCAR-8 ovarian
SF-268 CNS = tested on: SF-268 CNS
SNB-75 CNS = tested on: SNB-75 CNS
SK-MEL-2 melanoma = tested on: SK-MEL-2 melanoma
UACC-62 melanoma = tested on: UACC-62 melanoma
SW-620 colon = tested on: SW-620 colon
BT-549 breast = tested on: BT-549 breast
MDA-N = tested on: MDA-N
SK-MEL-5 melanoma = tested on: SK-MEL-5 melanoma
786-0 renal = tested on: 786-0 renal
KM12 colon = tested on: KM12 colon
SK-OV-3 ovarian = tested on: SK-OV-3 ovarian
MDA-MB-435 = tested on: MDA-MB-435
HCT-15 colon = tested on: HCT-15 colon
MOLT-4 leukemia = tested on: MOLT-4 leukemia
COLO 205 colon = tested on: COLO 205 colon
M14 melanoma = tested on: M14 melanoma
HT29 colon = tested on: HT29 colon
PC-3 prostate = tested on: PC-3 prostate
OVCAR-5 ovarian = tested on: OVCAR-5 ovarian
RXF 393 renal = tested on: RXF 393 renal
SN12C renal = tested on: SN12C renal
SF-539 CNS = tested on: SF-539 CNS
IGROV1 ovarian = tested on: IGROV1 ovarian
NCI-H460 lung = tested on: NCI-H460 lung
MDA-MB-231 breast = tested on: MDA-MB-231 breast
A498 renal = tested on: A498 renal
HOP-92 NSCLC = tested on: HOP-92 NSCLC
RPMI-8226 leukemia = tested on: RPMI-8226 leukemia

CC(C)CN1CN(c2ccccc2)C2(CCN(CC(C)(c3ccc(F)cc3)C3OCCO3)CC2)C1=O (centres undefined) gave a TGI (T-47D breast) of 15.3 µM, a TGI (HOP-62 NSCLC) of 13.8 µM and a TGI (SR leukemia) of 12.8 µM. The TGI (SNB-19 CNS) was 21.9 µM, the TGI (K-562 leukemia) was 18 µM and the TGI (U251 CNS) was 17.2 µM. For the same molecule, the TGI (A549 NSCLC) was 19.7 µM, the TGI (NCI-H23 lung) was 8.69 µM and the TGI (NCI-H522 lung) was 12.7 µM. It also gave a TGI (ACHN renal) of 15 µM, a TGI (NCI/ADR-RES ovarian) of 37.4 µM and a TGI (OVCAR-3 ovarian) of 22.4 µM. For the same molecule, the TGI (CCRF-CEM leukemia) was 18.1 µM, the TGI (DU-145 prostate) was 14.8 µM and the TGI (UACC-257 melanoma) was 10.8 µM. It also gave a TGI (EKVX NSCLC) of 19.8 µM, a TGI (CAKI-1 renal) of 24.4 µM and a TGI (HCT-116 colon) of 13.9 µM. It also gave a TGI (HS 578T breast) of 16.8 µM, a TGI (MALME-3M melanoma) of 17.2 µM and a TGI (SF-295 CNS) of 10.9 µM. For the same molecule, the TGI (HCC-2998 colon) was 8.52 µM, the TGI (UO-31 renal) was 9.77 µM and the TGI (OVCAR-4 ovarian) was 29.7 µM. For the same molecule, the TGI (SK-MEL-28 melanoma) was 10 µM, the TGI (MCF7 breast) was 13.8 µM and the TGI (TK-10 renal) was 23.4 µM. For the same molecule, the TGI (NCI-H226 lung) was 29.1 µM, the TGI (HL-60(TB) leukemia) was 12.8 µM and the TGI (LOX IMVI melanoma) was 5.31 µM. It also gave a TGI (OVCAR-8 ovarian) of 29.3 µM, a TGI (SF-268 CNS) of 30.1 µM and a TGI (SNB-75 CNS) of 20 µM. It also gave a TGI (SK-MEL-2 melanoma) of 11.5 µM, a TGI (UACC-62 melanoma) of 26.3 µM and a TGI (SW-620 colon) of 17.5 µM. It also gave a TGI (BT-549 breast) of 20.9 µM, a TGI (MDA-N) of 19.6 µM and a TGI (SK-MEL-5 melanoma) of 4.95 µM. The TGI (786-0 renal) was 12.1 µM, the TGI (KM12 colon) was 15.6 µM and the TGI (SK-OV-3 ovarian) was 14.3 µM. For the same molecule, the TGI (MDA-MB-435) was 23.5 µM, the TGI (HCT-15 colon) was 16.6 µM and the TGI (MOLT-4 leukemia) was 7.32 µM. It also gave a TGI (COLO 205 colon) of 3.71 µM, a TGI (M14 melanoma) of 8.46 µM and a TGI (HT29 colon) of 5.94 µM. The TGI (PC-3 prostate) was 14.3 µM, the TGI (OVCAR-5 ovarian) was 25.7 µM and the TGI (RXF 393 renal) was 21.9 µM. For the same molecule, the TGI (SN12C renal) was 19.1 µM and the TGI (SF-539 CNS) was 18.2 µM.
With Cc1ccc(N=Nc2c(O)c3ccccc3[nH]c2=O)c(S(=O)(=O)N(C)C)c1 the TGI (T-47D breast) was greater than 100 µM, the TGI (HOP-62 NSCLC) was greater than 100 µM and the TGI (SNB-19 CNS) was greater than 100 µM. It also gave a TGI (K-562 leukemia) greater than 100 µM, a TGI (U251 CNS) greater than 100 µM and a TGI (A549 NSCLC) greater than 100 µM. It also gave a TGI (NCI-H23 lung) greater than 100 µM, a TGI (NCI-H522 lung) greater than 100 µM and a TGI (ACHN renal) greater than 100 µM. The TGI (NCI/ADR-RES ovarian) was greater than 100 µM, the TGI (OVCAR-3 ovarian) was greater than 100 µM and the TGI (CCRF-CEM leukemia) was greater than 100 µM. The TGI (DU-145 prostate) was greater than 100 µM, the TGI (IGROV1 ovarian) was greater than 100 µM and the TGI (UACC-257 melanoma) was greater than 100 µM. The TGI (EKVX NSCLC) was greater than 100 µM, the TGI (CAKI-1 renal) was greater than 100 µM and the TGI (HCT-116 colon) was greater than 100 µM. For the same molecule, the TGI (HS 578T breast) was greater than 100 µM, the TGI (MALME-3M melanoma) was greater than 100 µM and the TGI (SF-295 CNS) was greater than 100 µM. For the same molecule, the TGI (UO-31 renal) was greater than 100 µM, the TGI (OVCAR-4 ovarian) was greater than 100 µM and the TGI (SK-MEL-28 melanoma) was greater than 100 µM. It also gave a TGI (MCF7 breast) greater than 100 µM, a TGI (TK-10 renal) greater than 100 µM and a TGI (NCI-H460 lung) greater than 100 µM. For the same molecule, the TGI (NCI-H226 lung) was greater than 100 µM, the TGI (HL-60(TB) leukemia) was greater than 100 µM and the TGI (LOX IMVI melanoma) was greater than 100 µM. The TGI (OVCAR-8 ovarian) was greater than 100 µM, the TGI (SF-268 CNS) was greater than 100 µM and the TGI (SNB-75 CNS) was greater than 100 µM. It also gave a TGI (SK-MEL-2 melanoma) greater than 100 µM, a TGI (UACC-62 melanoma) greater than 100 µM and a TGI (SW-620 colon) greater than 100 µM. The TGI (MDA-MB-231 breast) was greater than 100 µM, the TGI (BT-549 breast) was greater than 100 µM and the TGI (MDA-N) was greater than 100 µM. For the same molecule, the TGI (SK-MEL-5 melanoma) was greater than 100 µM, the TGI (786-0 renal) was greater than 100 µM and the TGI (KM12 colon) was greater than 100 µM. For the same molecule, the TGI (SK-OV-3 ovarian) was greater than 100 µM, the TGI (A498 renal) was greater than 100 µM and the TGI (MDA-MB-435) was greater than 100 µM. The TGI (HCT-15 colon) was greater than 100 µM, the TGI (COLO 205 colon) was greater than 100 µM and the TGI (M14 melanoma) was greater than 100 µM. The TGI (HT29 colon) was greater than 100 µM, the TGI (PC-3 prostate) was greater than 100 µM and the TGI (HOP-92 NSCLC) was greater than 100 µM. The TGI (OVCAR-5 ovarian) was greater than 100 µM, the TGI (RXF 393 renal) was greater than 100 µM and the TGI (SN12C renal) was greater than 100 µM. For the same molecule, the TGI (RPMI-8226 leukemia) was greater than 100 µM and the TGI (SF-539 CNS) was greater than 100 µM.
O=C1CC(NC(=O)C(F)(F)F)c2c(Br)sc(N3CCC(c4ccccc4)CC3)c21 (centres undefined) gave a TGI (T-47D breast) of 55.4 µM, a TGI (SNB-19 CNS) of 78.2 µM and a TGI (K-562 leukemia) greater than 100 µM. It also gave a TGI (U251 CNS) of 25.5 µM, a TGI (A549 NSCLC) greater than 100 µM and a TGI (NCI-H23 lung) greater than 100 µM. For the same molecule, the TGI (NCI-H522 lung) was greater than 100 µM, the TGI (ACHN renal) was greater than 100 µM and the TGI (NCI/ADR-RES ovarian) was greater than 100 µM. For the same molecule, the TGI (OVCAR-3 ovarian) was 95.8 µM, the TGI (CCRF-CEM leukemia) was greater than 100 µM and the TGI (DU-145 prostate) was greater than 100 µM. The TGI (IGROV1 ovarian) was greater than 100 µM, the TGI (UACC-257 melanoma) was 82.4 µM and the TGI (EKVX NSCLC) was greater than 100 µM. It also gave a TGI (CAKI-1 renal) of 43.8 µM, a TGI (HCT-116 colon) greater than 100 µM and a TGI (HS 578T breast) of 79.6 µM. The TGI (MALME-3M melanoma) was greater than 100 µM, the TGI (SF-295 CNS) was 28.7 µM and the TGI (HCC-2998 colon) was greater than 100 µM. The TGI (UO-31 renal) was greater than 100 µM, the TGI (OVCAR-4 ovarian) was 92.6 µM and the TGI (MCF7 breast) was greater than 100 µM. It also gave a TGI (TK-10 renal) of 97.7 µM, a TGI (NCI-H460 lung) greater than 100 µM and a TGI (NCI-H226 lung) of 91.5 µM. The TGI (HL-60(TB) leukemia) was greater than 100 µM, the TGI (LOX IMVI melanoma) was greater than 100 µM and the TGI (OVCAR-8 ovarian) was greater than 100 µM. The TGI (SF-268 CNS) was greater than 100 µM, the TGI (SNB-75 CNS) was greater than 100 µM and the TGI (SK-MEL-2 melanoma) was greater than 100 µM. For the same molecule, the TGI (UACC-62 melanoma) was greater than 100 µM, the TGI (SW-620 colon) was greater than 100 µM and the TGI (MDA-MB-231 breast) was 39.8 µM. For the same molecule, the TGI (BT-549 breast) was greater than 100 µM, the TGI (MDA-N) was greater than 100 µM and the TGI (SK-MEL-5 melanoma) was 68.4 µM. For the same molecule, the TGI (786-0 renal) was greater than 100 µM, the TGI (KM12 colon) was greater than 100 µM and the TGI (SK-OV-3 ovarian) was greater than 100 µM. It also gave a TGI (A498 renal) greater than 100 µM, a TGI (MDA-MB-435) greater than 100 µM and a TGI (HCT-15 colon) greater than 100 µM. The TGI (MOLT-4 leukemia) was greater than 100 µM, the TGI (COLO 205 colon) was greater than 100 µM and the TGI (M14 melanoma) was greater than 100 µM. For the same molecule, the TGI (HT29 colon) was greater than 100 µM, the TGI (PC-3 prostate) was greater than 100 µM and the TGI (HOP-92 NSCLC) was 41.1 µM. For the same molecule, the TGI (OVCAR-5 ovarian) was greater than 100 µM, the TGI (RXF 393 renal) was 88.3 µM and the TGI (SN12C renal) was greater than 100 µM. It also gave a TGI (SF-539 CNS) greater than 100 µM.
